Results as given in US7138361B2, “Herbicidal heterocycles” (E. I. du Pont de Nemours and Company, priority 2000, dated 2006).

Columns and labels:
Format in all cases: in vivo
[1] = system: Surinam grass (Brachiaria decumbens); test: Test B preemergence
Method in brief: (§1)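 Greenhouse test: chemicals are formulated in a surfactant-containing non-phytotoxic solvent and applied either preemergence to planted seeds or postemergence to plants 2 to 18 cm tall. Response is rated visually versus controls after 13 to 15 days, 0 meaning no effect and 100 complete control.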

[2] = system: barnyardgrass (Echinochloa crus-galli); test: Test B preemergence
Method in brief: as §1

[3] = system: cocklebur (Xanthium strumarium); test: Test B preemergence
Method in brief: as §1

corn (Zea mays) = test: Test B preemergence
Method in brief: as §1

[4] = system: crabgrass (Digitaria sanguinalis); test: Test B preemergence
Method in brief: as §1

[5] = system: giant foxtail (Setaria faberii); test: Test B preemergence
Method in brief: as §1

[6] = system: lambsquarters (Chenopodium album); test: Test B preemergence
Method in brief: as §1

[7] = system: morning glory (Ipomoea hederacea); test: Test B preemergence
Method in brief: as §1

[8] = system: pigweed (Amaranthus retroflexus); test: Test B preemergence
Method in brief: as §1

rice (Oryza saliva) = test: Test B preemergence
Method in brief: as §1

[9] = system: velvetleaf (Abutilon theophrasti); test: Test B preemergence
Method in brief: as §1

Sunflower [10] = test: Test C preemergence; settings: Rate 125 g/ha; scale 0 to 100, 0 no effect, 100 complete control
[11] = system: Surinam grass (Brachiaria decumbens); test: Test C preemergence; settings: for Plant response rating (0 to 100), Surinam grass: visual evaluation after 12 to 14 days
Method in brief: (§2)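 Each compound was dissolved in a non-phytotoxic solvent system containing a surfactant and sprayed either on freshly planted seeds (preemergence) or on young plants, 2 to 18 cm high (postemergence). Ratings after 12 to 14 greenhouse days ran from 0, no effect, to 100, complete control.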

[12] = system: bermudagrass (Cynodon dactylon); test: Test C preemergence; settings: for Plant response rating (0 to 100 where 0 is no effect and 100 is complete control), Bermudagrass: visual evaluation after 12 to 14 days
Method in brief: as §2

[13] = system: cocklebur (Xanthium strumarium); test: Test C preemergence; settings: for Plant response rating (0 to 100), Cocklebur: visual evaluation after 12 to 14 days
Method in brief: as §2

[14] = system: common ragweed (Ambrosia elatior); test: Test C preemergence
Method in brief: as §2

[15] = system: crabgrass (Digitaria sanguinalis); test: Test C preemergence; settings: for Plant response rating (0 to 100), Crabgrass: visual evaluation after 12 to 14 days
Method in brief: as §2

[16] = system: giant foxtail (Setaria faberii); test: Test C preemergence; settings: for Plant response rating (0 to 100), Foxtail, Giant: visual evaluation after 12 to 14 days
Method in brief: as §2

[17] = system: goosegrass (Eleusine indica); test: Test C preemergence; settings: for Plant response rating (0 to 100), Goosegrass: visual evaluation after 12 to 14 days
Method in brief: as §2

[18] = system: morningglory (Ipomoea hederacea); test: Test C preemergence
Method in brief: as §2

[19] = system: velvetleaf (Abutilon theophrasti); test: Test C preemergence
Method in brief: as §2

Sunflower [20] = test: Test C preemergence; settings: Rate 500 g/ha, visual evaluation after 12 to 14 days
[21] = Preemergence, Rate 500 g/ha, scale 0 to 100, 0 no effect, 100 complete control
[22] = preemergence, Rate 125 g/ha, scale of 0 to 100 where 0 is no effect and 100 is complete control, 13 to 15 days
[23] = Rate 125 g/ha, scale 0 to 100, 0 no effect, 100 complete control
[24] = preemergence, Rate 62 g/ha, scale 0 to 100
[25] = preemergence, Rate 500 g/ha, visual evaluation after 12 to 14 days
[26] = preemergence, Rate 250 g/ha, scale 0 to 100, 0 no effect, 100 complete control

CSc1cccc(N2CCC(n3ccc(C(C)(C)C)n3)C2=O)c1 (centres unmarked) [Compound 86]
Plant response rating, Surinam grass [1, 21]: 60
Plant response rating, Surinam grass [1, 22]: 0
Plant response rating, Barnyardgrass [2, 21]: 100
Plant response rating, Barnyardgrass [2, 22]: 0
Plant response rating, Cocklebur [3, 21]: 0
Plant response rating, Cocklebur [3, 22]: 0
Plant response rating, Corn (corn (Zea mays); [21]): 20
Plant response rating, Corn (corn (Zea mays); [22]): 0
Plant response rating, Crabgrass [4, 21]: 100
Plant response rating, Crabgrass [4, 22]: 0
Plant response rating, Foxtail, Giant [5, 21]: 100
Plant response rating, Foxtail, Giant [5, 22]: 80
Plant response rating, Lambsquarters [6, 21]: 100
Plant response rating, Lambsquarters [6, 22]: 100
Plant response rating, Morningglory [7, 21]: 0
Plant response rating, Morningglory [7, 22]: 0
Plant response rating, Pigweed [8, 21]: 100
Plant response rating, Pigweed [8, 22]: 100
Plant response rating, Rice (rice (Oryza saliva); [21]): 0
Plant response rating, Rice (rice (Oryza saliva); [22]): 0
Plant response rating, Velvetleaf [9, 21]: 0
Plant response rating, Velvetleaf [9, 22]: 0
Plant response rating, Sunflower (Sunflower [10]): 20
Plant response rating, Surinam grass [11, 23]: 20
Plant response rating, Surinam grass [11, 24]: 20
Plant response rating (0 to 100), Surinam grass ([11]; preemergence, Rate 250 g/ha): 20
Plant response rating (0 to 100), Surinam grass ([11]; preemergence, Rate 500 g/ha): 30
Plant response rating, Bermudagrass [12, 23]: 30
Plant response rating, Bermudagrass [12, 24]: 10
Plant response rating (0 to 100 where 0 is no effect and 100 is complete control), Bermudagrass ([12]; preemergence, Rate 250 g/ha): 90
Plant response rating (0 to 100 where 0 is no effect and 100 is complete control), Bermudagrass ([12]; preemergence, Rate 500 g/ha): 100
Plant response rating, Cocklebur [13, 23]: 0
Plant response rating, Cocklebur [13, 24]: 0
Plant response rating (0 to 100), Cocklebur ([13]; preemergence, Rate 250 g/ha): 0
Plant response rating (0 to 100), Cocklebur ([13]; preemergence, Rate 500 g/ha): 0
Plant response rating, Ragweed, Common [14, 23]: 0
Plant response rating, Ragweed, Common [14, 24]: 0
Plant response rating (0 to 100), Ragweed, Common [14, 25]: 0
Plant response rating, Ragweed, Common [14, 26]: 0
Plant response rating, Crabgrass [15, 23]: 90
Plant response rating, Crabgrass [15, 24]: 0
Plant response rating (0 to 100), Crabgrass ([15]; preemergence, Rate 250 g/ha): 100
Plant response rating (0 to 100), Crabgrass ([15]; preemergence, Rate 500 g/ha): 100
Plant response rating, Foxtail, Giant [16, 23]: 0
Plant response rating, Foxtail, Giant [16, 24]: 0
Plant response rating (0 to 100), Foxtail, Giant ([16]; preemergence, Rate 250 g/ha): 80
Plant response rating (0 to 100), Foxtail, Giant ([16]; preemergence, Rate 500 g/ha): 100
Plant response rating, Goosegrass [17, 23]: 90
Plant response rating, Goosegrass [17, 24]: 100
Plant response rating (0 to 100), Goosegrass ([17]; preemergence, Rate 250 g/ha): 100
Plant response rating (0 to 100), Goosegrass ([17]; preemergence, Rate 500 g/ha): 100
Plant response rating, Morningglory [18, 23]: 0
Plant response rating, Morningglory [18, 24]: 0
Plant response rating, Morningglory [18, 26]: 0
Plant response rating, Velvetleaf [19, 23]: 0
Plant response rating, Velvetleaf [19, 24]: 0
Plant response rating (0 to 100), Velvetleaf [19, 25]: 70
Plant response rating, Velvetleaf [19, 26]: 0
Plant response rating (0 to 100), Sunflower (Sunflower [20]): 20
